Experimental data as given in patent US20050222204A1, “Opioid receptor antagonists” (priority 2002, published 2005).
Like-named read-outs stand apart in the source and are kept apart here.

What was measured:
[1] = biological target: T1, human opioid receptors, Mu (MOR) (Homo sapiens, UniProt P35372); test: GTPγS functional antagonist assay (SPA), mu receptor, vs DAMGO; type: biochemical
T1 construct: expressed in transfected cells
Method: (§1) An SPA-based GTPgS assay format was developed based on previous opioid (Emmerson et al., J. Pharm Exp Ther 278,1121,1996; Homg et al., Society for Neuroscience Abstracts, 434.6, 2000) and muscarinic (DeLapp et al., JPET 289, 946, 1999) assay formats. Membranes were resuspended in 20 mM HEPES, 100 mM NaCl, 5 mM MgCl2, 1 mM DTT, and 1 mM EDTA. […] of GTPγ[35S], compound, membrane suspension (20 microgram/well), and wheat germ agglutinin coated SPA beads (1 mg/well) were added to clear bottom 96 well assay plates. GDP ([…]) was added to the membrane solution prior to addition to the assay plates. Plates were sealed and incubated for four hours at room temperature then placed in a refrigerator overnight to allow the beads to settle. […] Plates were warmed to room temperature and counted in a Wallac Microbeta scintillation counter. For antagonist assays, specific agonists were added at the following concentrations: (MOR) DAMGO 1 micromolar, (DOR) DPDPE 30 nM, (KOR) U69593 300 nM. Kb's were determined by Cheng-Prusoff equation (Cheng and Prusoff, 22,3099 1973).

[2] = biological target: T2, human opioid receptors, Kappa (KOR) (Homo sapiens, UniProt P41145); test: GTPγS functional antagonist assay (SPA), kappa receptor, vs U69593; type: biochemical
T2 construct: expressed in transfected cells
Method: as §1

[3] = biological target: T3, human opioid receptors, Delta (DOR) (Homo sapiens, UniProt P41143); test: GTPγS functional antagonist assay (SPA), delta receptor, vs DPDPE; type: biochemical
T3 construct: expressed in transfected cells
Method: as §1

[4] = Bioavailability in rat (Table 2); conditions: in vivo, read-out: Metabolis Rat (bioavailability)
[5] = biological target: T4, human Cytochrome 2D6 (CYP2D6) (Homo sapiens, UniProt P10635); test: Assay for inhibition of CYP2D6 activity (human liver microsomes, bufuralol substrate); type: in vitro ADME
T4 construct: from tissue; host or cells: human liver microsomes
Method: The reduced potential for inhibition of cytochrome P450 was discovered using a standard assay that monitors the compound's ability to inhibit Cyp2D6 a member of the cytochrome P450 family of enzymes.
Assay for Inhibition of CYP2D6 Activity
The inhibition of human Cytochrome 2D6 (CYP2D6) activity was studied using a validated high through-put screening assay. A 3 uL aliquot of an 8 mM stock solution of compound was delivered to 397 uL of pH 7.4 (50 mM) phosphate buffer resulting in an initial concentration of 60 uM. The compound dose solutions were prepared by serial dilutions to produce concentrations of […]. A 6 mM NaDPH stock solution was prepared by addition of 100 mg of NaDPH to 20 mL of pH 7.4 buffer. A 600 uL aliquot of Human liver Microsomes (HLM-20.0 mg/ml) was added to 20 ml of pH 7.4 phosphate buffer to produce a 0.6 mg/ml solution of HLM. To the HLM mixture was added 120 uL of a 10 mM bufurolol solution (CYP2D6 substrate) producing a final bufuralol concentration of 60 uM. To each assay plate was added 100 uL of the compound dose solutions, 25 uL NaDPH and 25 uL HLM/bufurolol solution. Samples were incubated at 37° C. for 10 minutes and the reaction was quenched with 25 uL of a 2% perchloric acid solution, followed by centrifugation at 3200 rpm for 30 min. The resulting supernatant was assayed for bufurolol concentrations using a Turbo Ion Spray API 150EX MS method. The calculated IC50 value represents the compound concentration that results in a 50% reduction in burfurolol consumption. Table 3 below provides a comparative data for inhibition of CyP2D6.

male Long-Evans rats = test: Antiorexigenic effect: food consumption in fasted rats; type: in vivo, rat; conditions: oral 3 mg/kg; rats fasted 18 hours; over 1 hour, 2 hour and 4 hour periods; vs untreated control
Method: Compounds were tested for effects on food consumption in male Long-Evans rats which had been fasted for 18 hours prior to testing. The weight of food consumed was measured for groups of 6 rats treated with test substance and compared to the food consumed by an untreated control group of 6 animals.

T3 sequence (P41143 whole entry): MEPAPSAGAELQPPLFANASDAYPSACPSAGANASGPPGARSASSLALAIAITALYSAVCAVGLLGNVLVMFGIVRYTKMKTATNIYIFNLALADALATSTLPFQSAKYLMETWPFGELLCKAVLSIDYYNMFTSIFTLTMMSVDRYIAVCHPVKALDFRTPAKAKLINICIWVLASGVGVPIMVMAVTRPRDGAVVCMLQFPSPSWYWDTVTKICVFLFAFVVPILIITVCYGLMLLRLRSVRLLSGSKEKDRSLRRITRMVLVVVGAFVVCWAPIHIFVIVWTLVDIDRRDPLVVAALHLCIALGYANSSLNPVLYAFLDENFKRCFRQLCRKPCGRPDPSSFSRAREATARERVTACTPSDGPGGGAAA
T1 sequence (P35372 whole entry): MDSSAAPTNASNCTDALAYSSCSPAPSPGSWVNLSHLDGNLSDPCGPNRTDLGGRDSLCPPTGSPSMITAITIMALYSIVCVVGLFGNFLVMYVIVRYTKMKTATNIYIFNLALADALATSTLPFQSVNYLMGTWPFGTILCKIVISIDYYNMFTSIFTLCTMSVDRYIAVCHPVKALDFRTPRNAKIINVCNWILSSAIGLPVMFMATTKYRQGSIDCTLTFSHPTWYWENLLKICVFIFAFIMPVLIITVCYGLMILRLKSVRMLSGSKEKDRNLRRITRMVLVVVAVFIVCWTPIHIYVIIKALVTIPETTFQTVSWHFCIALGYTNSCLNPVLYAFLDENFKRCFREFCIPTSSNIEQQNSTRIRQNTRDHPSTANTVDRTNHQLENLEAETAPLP
T4 sequence (P10635 whole entry): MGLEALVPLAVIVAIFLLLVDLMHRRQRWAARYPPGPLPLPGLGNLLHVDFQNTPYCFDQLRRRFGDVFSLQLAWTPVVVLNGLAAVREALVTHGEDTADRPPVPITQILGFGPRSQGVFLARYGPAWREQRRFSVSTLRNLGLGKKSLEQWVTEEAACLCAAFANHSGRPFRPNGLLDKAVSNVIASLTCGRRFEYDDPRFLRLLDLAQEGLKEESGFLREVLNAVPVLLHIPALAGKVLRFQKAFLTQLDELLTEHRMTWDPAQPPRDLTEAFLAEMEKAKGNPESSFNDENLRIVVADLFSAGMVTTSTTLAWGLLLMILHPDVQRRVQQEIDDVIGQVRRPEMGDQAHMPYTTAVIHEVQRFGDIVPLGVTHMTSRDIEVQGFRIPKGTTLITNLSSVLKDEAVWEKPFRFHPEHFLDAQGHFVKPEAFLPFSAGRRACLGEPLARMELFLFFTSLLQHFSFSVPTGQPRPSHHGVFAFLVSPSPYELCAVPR
T2 sequence (P41145 whole entry): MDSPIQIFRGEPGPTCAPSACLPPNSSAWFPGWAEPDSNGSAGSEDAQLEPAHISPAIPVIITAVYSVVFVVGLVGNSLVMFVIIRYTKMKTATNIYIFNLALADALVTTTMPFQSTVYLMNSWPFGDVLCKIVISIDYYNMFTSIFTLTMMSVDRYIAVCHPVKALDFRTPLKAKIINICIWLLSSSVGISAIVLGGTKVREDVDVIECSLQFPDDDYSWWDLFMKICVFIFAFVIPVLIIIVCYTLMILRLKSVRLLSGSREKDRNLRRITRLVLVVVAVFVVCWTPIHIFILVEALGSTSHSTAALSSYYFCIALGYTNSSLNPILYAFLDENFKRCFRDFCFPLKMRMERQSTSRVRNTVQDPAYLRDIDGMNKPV

| Structure (SMILES) | Kb [1] [nM] | fold more potent than the compound of formula (II) in GTP-γ-S functional antagonist assay ([1]; versus compound (II) of Table 1, mu, kappa, delta) | Kb [2] [nM] | Kb [3] [nM] | bioavailability [4] [%] | IC50 ([5]; human liver microsomes, bufuralol substrate, 37° C., 10 minutes) [nM] | times less likely to inhibit the cytochrome P450 enzyme system compared to compound (III) ([5]; versus compound (III) of Table 3) | times less likely to cause inhibition of the cytochrome P450 enzyme compared to compound (II) ([5]; versus prior clinical trial candidate compound (II) of Table 3) [times] | inhibition of cumulative food consumed (male Long-Evans rats) | Kb ([3]; read-out: In Vitro GTPγ-S human opioid receptors Delta (Kb)) [nM] |
| --- | --- | --- | --- | --- | --- | --- | --- | --- | --- | --- |
| C[C@H]1CN(CC[C@H](O)C2CCCCC2)CC[C@@]1(C)c1cccc(C(N)=O)c1 (stereo in doubt) [(I), 3-[1-(3-Cyclohexyl-3-hydroxy-propyl)-3,4-dimethyl-piperidin-4-yl]-benzamide] | 0.12 | at least 2 fold | 1.93 | 2.81 | 32 | 39000 | over 4 times | ~16 | statistically significant inhibition |  |
| CCCCCCN1CC[C@@](C)(c2cccc(C(N)=O)c2)[C@@H](C)C1 [(II), reference compound] | 0.31 |  | 4.51 | 8.72 |  |  |  |  |  |  |
| C[C@H]1CN(CC[C@H](O)C2CCCCC2)CC[C@@]1(C)c1cccc(O)c1 [(III)] |  |  |  |  |  |  |  |  |  | 1.19 |
